Measured values: patent US11332475B2, “Optically active pyranochromenyl phenol derivative and pharmaceutical composition comprising same” (GLACEUM, INC., priority 2016, dated 2022)

What was measured:
Assay type in all cases: in vivo
[1] = test system: diet induced obesity (DIO) mouse; experiment: Anti-obesity effect (body weight change) in diet induced obesity (DIO) mouse; settings: for Anti-obesity effect (%): % body weight change by Equation 1; for Anti-obesity activity compared with other isomer/racemate: result in words
Protocol: Specifically, a 5- to 6-week-old female C57BL/6J mouse (Jackson Lab., USA) were purchased and fed with only high-fat fodder for at least 11 weeks to produce a diet induced obesity (DIO) mouse. Samples were exactly taken from a control and the racemic compound, the R-enantiomer (Compound 2a) and the S-enantiomer (Compound 2b) in Example 1 according to the administration dose (0, 20, and 50 mg/kg) and put into Falcon tubes, 3 ml of a 0.5% aqueous methyl cellulose solution was added thereto, and the resulting mixture was gently mixed by means of a vortex mixer. Thereafter, the mixture was homogenized by using a homogenizer (30,000 rpm, Ultra-Turrax® T10 Basic, IKA) for 3 minutes while 1.5 ml of a 0.5% aqueous methyl cellulose solution was added thereto. The sample thus prepared was administered through the oral gavage once daily for 6 weeks by using a disposable plastic syringe. The body weight was measured once a week while the DIO mouse was bred in this manner.
Based on the data thus measured, the anti-obesity effect was calculated according to the following Equation 1. Anti-obesity effect (%)={(Body weight after compound is administered)−(Body weight before compound is administered)}/(Body weight before compound is administered))×100 [Equation 1]
For the anti-obesity efficacy of the R-enantiomer (Compound 3a) and the S-enantiomer (Compound 3b) of the optically active pyranochromenylphenol compound prepared in Example 2, an experiment was performed in the same manner as in Experimental Example 1.
Based on the data thus measured, the anti-obesity effect was calculated according to Equation 1.

C57BLKS/J-db/db mice [2] = experiment: Change in glycated hemoglobin of db/db mouse; settings: average; for Glycated hemoglobin (HbAlc, %), before administration: 300 mg/kg group, before administration (baseline); for Glycated hemoglobin (HbAlc, %), 29th day after administration / Glycated hemoglobin (HbAlc, %), 43rd day after administration: 300 mg/kg
Protocol: (§1) Specifically, 5-week-old male C57BLKS/J-db/db mice (Central Lab. Animal Inc., Korea) were purchased and acclimatized for 2 weeks, and then used in the present experiment. The R-enantiomer (Compound 3a) and the S-enantiomer (Compound 3b) prepared in Example 2 were weighed (CP423S, Sartorius, Germany) according to the administration dose and put into 50 ml tubes, an excipient (10% LM 2125 CS MCT solution) stored at room temperature was added thereto, and then the resulting mixture was stirred by means of a vortex mixer so as to dissolve the excipient. Thereafter, the solution was ultrasonically treated for about 10 minutes, and a stock solution was prepared by formulating the solution at a predetermined concentration. A 0.5% aqueous MC solution as an excipient was added to the prepared stock solution, the resulting mixture was gently stirred by means of a vortex mixer, homogenized and prepared by means of a homogenizer (PT-1600E, Kinematica, Switzerland) at 30,000 rpm for 3 minutes, and then a solution was prepared at a final predetermined concentration by performing ultrasonic wave treatment for 30 minutes. The sample thus prepared was administered through the oral gavage once daily for 6 weeks by using a disposable plastic syringe with a zonde for oral administration attached.
By using the same method as in Experimental Example 3, a racemic compound of Compound 1, Compound 1a being an R-enantiomer, a racemic compound of Compound 3 prepared in Example 2 and Compound 3a being an R-enantiomer were administered to the C57BLKS/J-db/db mice, and then the anti-diabetes effects were confirmed.
The following Table 5 is a result of measuring a change in glycated hemoglobin of the db/db mouse according to the administration of the normal group, the negative control the racemic compound of Compound 1, Compound 1a being the R-enantiomer, the racemic Compound of Compound 3 prepared in Example 2 and Compound 3a being the R-enantiomer.

C57BLKS/J-db/db mice [3] = experiment: Glucose tolerance test in db/db mice; settings: db/db mouse; for Blood sugar (mg/dl), 15 min after administration of glucose / Blood sugar (mg/dl), 30 min after administration of glucose / Blood sugar (mg/dl), 60 min after administration of glucose / Blood sugar (mg/dl), 120 min after administration of glucose / Blood sugar (mg/dl), 180 min after administration of glucose / Blood sugar (mg/dl), 240 min after administration of glucose / Blood sugar (mg/dl), 0 min after administration of glucose / AUC of blood sugar: 48th day, average; for Blood sugar (mg/dl), 15 min after administration of glucose / Blood sugar (mg/dl), 30 min after administration of glucose / Blood sugar (mg/dl), 60 min after administration of glucose / Blood sugar (mg/dl), 120 min after administration of glucose / Blood sugar (mg/dl), 180 min after administration of glucose / Blood sugar (mg/dl), 240 min after administration of glucose / Blood sugar (mg/dl), 0 min after administration of glucose: glucose 2 g/kg oral; for Blood sugar (mg/dl), 0 min after administration of glucose: before glucose; for AUC of blood sugar: glucose tolerance test 0-240 min, Phoenix WinNonlin
Protocol: as §1
While the C57BLKS/J-db/db mouse was bred, the mouse was fasted for 14 to 16 hours on the 48th day after administration, and then a glucose tolerance test was performed by orally administering glucose (Lot No: SLBM9269V, Sigma-Aldrich. USA) at a dose of 2 g/kg to the mice. Specifically, blood was collected from the caudal vein seven times in total including before the administration of glucose, at 15 minutes after the administration of glucose, at 30 minutes after the administration of glucose, at 60 minutes after the administration of glucose, at 120 minutes after the administration of glucose, at 180 minutes after the administration of glucose, and at 240 minutes after the administration of glucose. Thereafter, blood sugar was measured by using two blood sugar meters (AGM-4000, Allmedicus Inc., Korea), and then an average blood sugar was calculated by using each blood sugar measurement value. The area under the blood concentration-time curve (AUC) for the blood sugar value at each measurement time point was calculated by using a Phoenix WinNonlin program.

[4] = 50 mg/kg oral gavage once daily for 6 weeks
[5] = 200 mg/kg oral gavage once daily for 6 weeks

SMILES | Anti-obesity effect (%) [1, 4] | Glycated hemoglobin (HbAlc, %), before administration (C57BLKS/J-db/db mice [2]) | Glycated hemoglobin (HbAlc, %), 29th day after administration (C57BLKS/J-db/db mice [2]) | Glycated hemoglobin (HbAlc, %), 43rd day after administration (C57BLKS/J-db/db mice [2]) | Anti-obesity activity compared with other isomer/racemate [1] | Anti-obesity effect (%) [1, 5] | Blood sugar (mg/dl), 15 min after administration of glucose (C57BLKS/J-db/db mice [3]; 100 mg/kg oral once daily) | Blood sugar (mg/dl), 30 min after administration of glucose (C57BLKS/J-db/db mice [3]; 100 mg/kg oral once daily) | Blood sugar (mg/dl), 60 min after administration of glucose (C57BLKS/J-db/db mice [3]; 100 mg/kg oral once daily) | Blood sugar (mg/dl), 120 min after administration of glucose (C57BLKS/J-db/db mice [3]; 100 mg/kg oral once daily) | Blood sugar (mg/dl), 180 min after administration of glucose (C57BLKS/J-db/db mice [3]; 100 mg/kg oral once daily) | Blood sugar (mg/dl), 240 min after administration of glucose (C57BLKS/J-db/db mice [3]; 100 mg/kg oral once daily) | Blood sugar (mg/dl), 0 min after administration of glucose (C57BLKS/J-db/db mice [3]; 100 mg/kg oral once daily) | AUC of blood sugar (C57BLKS/J-db/db mice [3]; 100 mg/kg oral once daily) | further results
CCOc1ccc(C2COc3c(ccc4c3CCC(C)(C)O4)C2)c(O)c1 (racemic) [Compound 2, 3-(2-hydroxy-4-ethoxyphenyl)-8,8-dimethyl-2,3,4,8,9,10-hexahydropyrano[2,3-f]chromene] | 2.29% | – | – | – | – | – | – | – | – | – | – | – | – | – | Anti-obesity effect (%) ([1]; 20 mg/kg oral gavage once daily for 6 weeks): 16.11%
CCCOc1ccc(C2COc3c(ccc4c3CCC(C)(C)O4)C2)c(O)c1 (racemic) [Compound 3, 3-(2-hydroxy-4-propoxyphenyl)-8,8-dimethyl-2,3,4,8,9,10-hexahydropyrano[2,3-f]chromene] | – | 4.7% | 6.7% | 6.2% | – | – | – | – | – | – | – | – | – | – | –
CCOc1ccc([C@@H]2COc3c(ccc4c3CCC(C)(C)O4)C2)c(O)c1 [Compound 2a, (R)-3-(2-hydroxy-4-ethoxyphenyl)-8,8-dimethyl-2,3,4,8,9,10-hexahydropyrano[2,3-f]chromene] | 7.58% | – | – | – | – | – | – | – | – | – | – | – | – | – | –
CCOc1ccc([C@H]2COc3c(ccc4c3CCC(C)(C)O4)C2)c(O)c1 [Compound 2b, (S)-3-(2-hydroxy-4-ethoxyphenyl)-8,8-dimethyl-2,3,4,8,9,10-hexahydropyrano[2,3-f]chromene] | −10.99% | – | – | – | better effect of suppressing an increase in body weight than the racemic compound and Compound 2a | – | – | – | – | – | – | – | – | – | –
CCCOc1ccc([C@@H]2COc3c(ccc4c3CCC(C)(C)O4)C2)c(O)c1 [Compound 3a, (R)-3-(2-hydroxy-4-propoxyphenyl)-8,8-dimethyl-2,3,4,8,9,10-hexahydropyrano[2,3-f]chromene] | – | 4.7% | 7.1% | 5.3% | – | −8.1% | 473 mg/dL | 527 mg/dL | 541 mg/dL | 200 mg/dL | 176 mg/dL | 184 mg/dL | 193 mg/dL | 526 mg/dL/min | Blood sugar (mg/dl), 15 min after administration of glucose (C57BLKS/J-db/db mice [3]; 150 mg/kg oral once daily): 440 mg/dL; Blood sugar (mg/dl), 30 min after administration of glucose (C57BLKS/J-db/db mice [3]; 150 mg/kg oral once daily): 469 mg/dL; Blood sugar (mg/dl), 60 min after administration of glucose (C57BLKS/J-db/db mice [3]; 150 mg/kg oral once daily): 460 mg/dL; Blood sugar (mg/dl), 120 min after administration of glucose (C57BLKS/J-db/db mice [3]; 150 mg/kg oral once daily): 234 mg/dL; Blood sugar (mg/dl), 180 min after administration of glucose (C57BLKS/J-db/db mice [3]; 150 mg/kg oral once daily): 153 mg/dL; Blood sugar (mg/dl), 240 min after administration of glucose (C57BLKS/J-db/db mice [3]; 150 mg/kg oral once daily): 163 mg/dL; Blood sugar (mg/dl), 0 min after administration of glucose (C57BLKS/J-db/db mice [3]; 150 mg/kg oral once daily): 175 mg/dL; AUC of blood sugar (C57BLKS/J-db/db mice [3]; 150 mg/kg oral once daily): 481 mg/dL/min; Blood sugar (mg/dl), 15 min after administration of glucose (C57BLKS/J-db/db mice [3]; 200 mg/kg oral once daily): 488 mg/dL; Blood sugar (mg/dl), 30 min after administration of glucose (C57BLKS/J-db/db mice [3]; 200 mg/kg oral once daily): 507 mg/dL; Blood sugar (mg/dl), 60 min after administration of glucose (C57BLKS/J-db/db mice [3]; 200 mg/kg oral once daily): 437 mg/dL; Blood sugar (mg/dl), 120 min after administration of glucose (C57BLKS/J-db/db mice [3]; 200 mg/kg oral once daily): 223 mg/dL; Blood sugar (mg/dl), 180 min after administration of glucose (C57BLKS/J-db/db mice [3]; 200 mg/kg oral once daily): 183 mg/dL; Blood sugar (mg/dl), 240 min after administration of glucose (C57BLKS/J-db/db mice [3]; 200 mg/kg oral once daily): 174 mg/dL; Blood sugar (mg/dl), 0 min after administration of glucose (C57BLKS/J-db/db mice [3]; 200 mg/kg oral once daily): 159 mg/dL; AUC of blood sugar (C57BLKS/J-db/db mice [3]; 200 mg/kg oral once daily): 501 mg/dL/min; Adjustment of blood sugar in glucose tolerance test, compared with other enantiomer (C57BLKS/J-db/db mice [3]; result in words): adjusted blood sugar well as compared to the S-enantiomer (Compound 3b)
CCCOc1ccc([C@H]2COc3c(ccc4c3CCC(C)(C)O4)C2)c(O)c1 [Compound 3b, (S)-3-(2-hydroxy-4-propoxyphenyl)-8,8-dimethyl-2,3,4,8,9,10-hexahydropyrano[2,3-f]chromene] | – | – | – | – | better anti-obesity activity than Compound 3a | −19.5% | 595 mg/dL | 616 mg/dL | 628 mg/dL | 472 mg/dL | 422 mg/dL | 397 mg/dL | 392 mg/dL | 782 mg/dL/min | Body weight of the mouse after administration for 6 weeks ([1]; 6 weeks, FIG. 4, result in words): close to the body weight of the normal mouse
